Columns and labels:
Format in all cases: functional
HL-60(TB) = assay: Growth inhibition of human HL-60(TB) cells at 10^-5 M incubated for 48 hrs by sulforhodamine B assay; conditions: HL-60, 48 h, read-out: GI
MOLT-4 = assay: Growth inhibition of human MOLT4 cells at 10^-5 M incubated for 48 hrs by sulforhodamine B assay; conditions: MOLT-4, 48 h, read-out: GI
SR = assay: Growth inhibition of human SR cells at 10^-5 M incubated for 48 hrs by sulforhodamine B assay; conditions: read-out: GI
A549 = assay: Growth inhibition of human A549/ATCC cells at 10^-5 M incubated for 48 hrs by sulforhodamine B assay; conditions: A549, 48 h, read-out: GI
EKVX = assay: Growth inhibition of human EKVX cells at 10^-5 M incubated for 48 hrs by sulforhodamine B assay; conditions: read-out: GI
HOP-62 = assay: Growth inhibition of human HOP62 cells at 10^-5 M incubated for 48 hrs by sulforhodamine B assay; conditions: HOP-62, 48 h, read-out: GI
HOP-92 = assay: Growth inhibition of human HOP92 cells at 10^-5 M incubated for 48 hrs by sulforhodamine B assay; conditions: HOP-92, 48 h, read-out: GI
NCI-H226 = assay: Growth inhibition of human NCI-H226 cells at 10^-5 M incubated for 48 hrs by sulforhodamine B assay; conditions: NCI-H226, 48 h, read-out: GI
NCI-H460 = assay: Growth inhibition of human NCI-H460 cells at 10^-5 M incubated for 48 hrs by sulforhodamine B assay; conditions: NCI-H460, 48 h, read-out: GI
COLO 205 = assay: Growth inhibition of human COLO205 cells at 10^-5 M incubated for 48 hrs by sulforhodamine B assay; conditions: COLO 205, 48 h, read-out: GI
HCC 2998 = assay: Growth inhibition of human HCC2998 cells at 10^-5 M incubated for 48 hrs by sulforhodamine B assay; conditions: HCC 2998, 48 h, read-out: GI
HCT-116 = assay: Growth inhibition of human HCT116 cells at 10^-5 M incubated for 48 hrs by sulforhodamine B assay; conditions: HCT-116, 48 h, read-out: GI
HCT-15 = assay: Growth inhibition of human HCT15 cells at 10^-5 M incubated for 48 hrs by sulforhodamine B assay; conditions: HCT-15, 48 h, read-out: GI
KM12 = assay: Growth inhibition of human KM12 cells at 10^-5 M incubated for 48 hrs by sulforhodamine B assay; conditions: KM12, 48 h, read-out: GI
SW-620 = assay: Growth inhibition of human SW620 cells at 10^-5 M incubated for 48 hrs by sulforhodamine B assay; conditions: SW-620, 48 h, read-out: GI
SF-295 = assay: Growth inhibition of human SF295 cells at 10^-5 M incubated for 48 hrs by sulforhodamine B assay; conditions: SF-295, 48 h, read-out: GI
SF-539 = assay: Growth inhibition of human SF539 cells at 10^-5 M incubated for 48 hrs by sulforhodamine B assay; conditions: SF-539, 48 h, read-out: GI
SNB-75 = assay: Growth inhibition of human SNB75 cells at 10^-5 M incubated for 48 hrs by sulforhodamine B assay; conditions: SNB-75, 48 h, read-out: GI
U-251 = assay: Growth inhibition of human U251 cells at 10^-5 M incubated for 48 hrs by sulforhodamine B assay; conditions: U-251, 48 h, read-out: GI
LOX IMVI = assay: Growth inhibition of human LOXIMVI cells at 10^-5 M incubated for 48 hrs by sulforhodamine B assay; conditions: read-out: GI
M14 = assay: Growth inhibition of human M14 cells at 10^-5 M incubated for 48 hrs by sulforhodamine B assay; conditions: M14, 48 h, read-out: GI
MDA-MB-435 = assay: Growth inhibition of human MDA-MB-435 cells at 10^-5 M incubated for 48 hrs by sulforhodamine B assay; conditions: MDA-MB-435, 48 h, read-out: GI
SK-MEL-28 = assay: Growth inhibition of human SK-MEL-28 cells at 10^-5 M incubated for 48 hrs by sulforhodamine B assay; conditions: SK-MEL-28, 48 h, read-out: GI
SK-MEL-5 = assay: Growth inhibition of human SK-MEL-5 cells at 10^-5 M incubated for 48 hrs by sulforhodamine B assay; conditions: SK-MEL-5, 48 h, read-out: GI
UACC-257 = assay: Growth inhibition of human UACC257 cells at 10^-5 M incubated for 48 hrs by sulforhodamine B assay; conditions: UACC-257, 48 h, read-out: GI
UACC-62 = assay: Growth inhibition of human UACC62 cells at 10^-5 M incubated for 48 hrs by sulforhodamine B assay; conditions: UACC-62, 48 h, read-out: GI
IGROV-1 = assay: Growth inhibition of human IGROV1 cells at 10^-5 M incubated for 48 hrs by sulforhodamine B assay; conditions: IGROV-1, 48 h, read-out: GI
OVCAR-5 = assay: Growth inhibition of human OVCAR5 cells at 10^-5 M incubated for 48 hrs by sulforhodamine B assay; conditions: OVCAR-5, 48 h, read-out: GI
OVCAR-8 = assay: Growth inhibition of human OVCAR8 cells at 10^-5 M incubated for 48 hrs by sulforhodamine B assay; conditions: OVCAR-8, 48 h, read-out: GI
SK-OV-3 = assay: Growth inhibition of human SKOV3 cells at 10^-5 M incubated for 48 hrs by sulforhodamine B assay; conditions: SK-OV-3, 48 h, read-out: GI
786-0 = assay: Growth inhibition of human 786-0 cells at 10^-5 M incubated for 48 hrs by sulforhodamine B assay; conditions: 786-0, 48 h, read-out: GI
CAKI-1 = assay: Growth inhibition of human Caki1 cells at 10^-5 M incubated for 48 hrs by sulforhodamine B assay; conditions: CAKI-1, 48 h, read-out: GI
RXF 393 = assay: Growth inhibition of human RXF393 cells at 10^-5 M incubated for 48 hrs by sulforhodamine B assay; conditions: RXF 393, 48 h, read-out: GI
TK-10 = assay: Growth inhibition of human TK10 cells at 10^-5 M incubated for 48 hrs by sulforhodamine B assay; conditions: TK-10, 48 h, read-out: GI
DU-145 = assay: Growth inhibition of human DU145 cells at 10^-5 M incubated for 48 hrs by sulforhodamine B assay; conditions: DU-145, 48 h, read-out: GI
MDA-MB-231 = assay: Growth inhibition of human MDA-MB-231 cells at 10^-5 M incubated for 48 hrs by sulforhodamine B assay; conditions: MDA-MB-231, 48 h, read-out: GI
Hs-578T = assay: Growth inhibition of human Hs 578T cells at 10^-5 M incubated for 48 hrs by sulforhodamine B assay; conditions: read-out: GI
T47D = assay: Growth inhibition of human T47D cells at 10^-5 M incubated for 48 hrs by sulforhodamine B assay; conditions: read-out: GI

N=C1Nc2c(sc3ccc(Cl)cc23)C(c2cccc(Br)c2)N1 (stereo unspecified)
inhibition of growth at 10 µM (HL-60(TB)): -2.27%
inhibition of growth at 10 µM (MOLT-4): 7.81%
inhibition of growth at 10 µM (SR): 22.4%
inhibition of growth at 10 µM (A549): 1.98%
inhibition of growth at 10 µM (EKVX): 14.5%
inhibition of growth at 10 µM (HOP-62): 8.49%
inhibition of growth at 10 µM (HOP-92): 3.3%
inhibition of growth at 10 µM (NCI-H226): 21.6%
inhibition of growth at 10 µM (NCI-H460): 1.37%
inhibition of growth at 10 µM (COLO 205): -0.42%
inhibition of growth at 10 µM (HCC 2998): -13.8%
inhibition of growth at 10 µM (HCT-116): 3.22%
inhibition of growth at 10 µM (HCT-15): -3.08%
inhibition of growth at 10 µM (KM12): 6.3%
inhibition of growth at 10 µM (SW-620): -3.61%
inhibition of growth at 10 µM (SF-295): -3.08%
inhibition of growth at 10 µM (SF-539): -8.29%
inhibition of growth at 10 µM (SNB-75): 14.4%
inhibition of growth at 10 µM (U-251): -3.32%
inhibition of growth at 10 µM (LOX IMVI): 1.33%
inhibition of growth at 10 µM (M14): 1.65%
inhibition of growth at 10 µM (MDA-MB-435): 1.88%
inhibition of growth at 10 µM (SK-MEL-28): -17.9%
inhibition of growth at 10 µM (SK-MEL-5): 3.53%
inhibition of growth at 10 µM (UACC-257): 1.22%
inhibition of growth at 10 µM (UACC-62): 16.5%
inhibition of growth at 10 µM (IGROV-1): 13%
inhibition of growth at 10 µM (OVCAR-5): -3.33%
inhibition of growth at 10 µM (OVCAR-8): -2.43%
inhibition of growth at 10 µM (SK-OV-3): 7.9%
inhibition of growth at 10 µM (786-0): 5.21%
inhibition of growth at 10 µM (CAKI-1): 20.5%
inhibition of growth at 10 µM (RXF 393): -10.1%
inhibition of growth at 10 µM (TK-10): -23.2%
inhibition of growth at 10 µM (DU-145): -10.7%
inhibition of growth at 10 µM (MDA-MB-231): 12.6%
inhibition of growth at 10 µM (Hs-578T): -4.14%
inhibition of growth at 10 µM (T47D): 11.3%

O=C1Nc2c(sc3ccc(Cl)cc23)C(c2ccccc2O)N1 (stereo unspecified)
inhibition of growth at 10 µM (HL-60(TB)): 1.61%
inhibition of growth at 10 µM (MOLT-4): 14.7%
inhibition of growth at 10 µM (SR): 19.1%
inhibition of growth at 10 µM (A549): -1.35%
inhibition of growth at 10 µM (EKVX): 21.9%
inhibition of growth at 10 µM (HOP-62): 13.9%
inhibition of growth at 10 µM (HOP-92): 21%
inhibition of growth at 10 µM (NCI-H226): 18.7%
inhibition of growth at 10 µM (NCI-H460): 6.65%
inhibition of growth at 10 µM (COLO 205): -9.33%
inhibition of growth at 10 µM (HCC 2998): -15.3%
inhibition of growth at 10 µM (HCT-116): 4.28%
inhibition of growth at 10 µM (HCT-15): 2%
inhibition of growth at 10 µM (KM12): -2.4%
inhibition of growth at 10 µM (SW-620): -1.05%
inhibition of growth at 10 µM (SF-295): 3.22%
inhibition of growth at 10 µM (SF-539): 3.22%
inhibition of growth at 10 µM (SNB-75): 27.4%
inhibition of growth at 10 µM (U-251): 4.41%
inhibition of growth at 10 µM (LOX IMVI): -0.62%
inhibition of growth at 10 µM (M14): 2.49%
inhibition of growth at 10 µM (MDA-MB-435): -3.03%
inhibition of growth at 10 µM (SK-MEL-28): -7.33%
inhibition of growth at 10 µM (SK-MEL-5): 4.49%
inhibition of growth at 10 µM (UACC-257): 9.85%
inhibition of growth at 10 µM (UACC-62): 13.9%
inhibition of growth at 10 µM (IGROV-1): 19.7%
inhibition of growth at 10 µM (OVCAR-5): 1.92%
inhibition of growth at 10 µM (OVCAR-8): 3.5%
inhibition of growth at 10 µM (SK-OV-3): 4.45%
inhibition of growth at 10 µM (786-0): 1.65%
inhibition of growth at 10 µM (CAKI-1): 18.5%
inhibition of growth at 10 µM (RXF 393): -4.74%
inhibition of growth at 10 µM (TK-10): -18.6%
inhibition of growth at 10 µM (DU-145): -8.18%
inhibition of growth at 10 µM (MDA-MB-231): 19.7%
inhibition of growth at 10 µM (Hs-578T): 3.74%
inhibition of growth at 10 µM (T47D): 18.1%

From ChEMBL document CHEMBL4414672, “Synthesis of certain benzothieno[3,2-d]pyrimidine derivatives as a selective SIRT2 inhibitors” (Eur J Med Chem, 2020)
